Source: patent US20260041679A1, “METHOD OF TREATING HYPERTENSION WITH THE ALDOSTERONE SYNTHASE INHIBITOR BAXDROSTAT” (CINCOR PHARMA, INC., priority 2022, published 2026)

System: patients with uHTN
Assay: Study 124 Part 1: seated SBP in patients with uncontrolled hypertension (Example 9)
Format: in vivo, human
Design: key to Model-Based Least-Squares Mean Change from Baseline (SBP) / LSMEANS change from baseline (SBP) / Model-Based Least-Square Mean Change from Baseline (SBP): LS mean change from baseline in seated SBP, mmHg
Experimental: Study 124 is a double-blind, placebo-controlled, dose range finding, multicenter study conducted in patients with uHTN receiving background antihypertensive agent(s) that are either an ACEI or an ARB, an ACEI/ARB plus a thiazide diuretic, or an ACEI/ARB plus a calcium channel blocker. The study consists of two parts: Part 1 consists of an 8-week treatment period in which the patients are to be assigned to one of 4 dose groups in equal ratio testing 0.5 mg, 1 mg, and 2 mg baxdrostat effects compared to a placebo. Patients are to administer double-blind baxdrostat tablets once per day while they continue taking the background antihypertensive medications. After 8 weeks of double-blind treatment, patients were to enter part 2 of the study unless the patient was assigned to the 2 mg group and the SBP remains ≥130 mmHg. In part 2 of the study, all patients are to cease dosing with background antihypertensive medication and take only baxdrostat 2 mg dose as a monotherapy for 4 weeks.
Key inclusion criteria include that patients are on a stable regimen of anti-hypertensive agents for at least 8 weeks; and have a seated BP≥140 mmHg. Key exclusion criteria include a seated SBP≥180 mmHg and estimated glomerular filtration rate (eGFR)<30 mL/min/1.73 m^2.
In this table, CI=confidence interval, DBP=diastolic blood pressure, LS=least squares, SBP=systolic blood pressure, SE=standard error. The LS means, CIs, and p-values are from an MMRM model with change from baseline as the dependent variable with randomized treatment, visit, and treatment-by-visit interaction as fixed categorical effects; along with covariates of the baseline value, race (African American versus non-African American), and the type of background antihypertensive regimen. The restricted maximum likelihood estimation (REML) approach will be used with an unstructured covariance matrix and the Kenward-Roger approximation for degrees of freedom.

[1] = 2 mg (N = 9), mITT, Female Non-Hispanic Female Patients
[2] = 2 mg (N = 13), mITT, Non-Hispanic Male Patients
[3] = 2 mg (N = 16), mITT Population for Hispanic Compliant Patients
[4] = 2 mg (N = 16), mITT, Hispanic Male Patients
[5] = 2 mg (N = 19), mITT, Female Hispanic/Latino Patients
[6] = Female Hispanic/Latino, mITT, 0.5 mg, Week 6
[7] = Female Hispanic/Latino, mITT, 0.5 mg, Week 8
[8] = Hispanic or Latino, ITT, 0.5 mg, Week 6
[9] = Hispanic or Latino, ITT, 0.5 mg, Week 8
[10] = Hispanic or Latino, ITT, 1 mg, Week 6
[11] = Hispanic or Latino, ITT, 1 mg, Week 8
[12] = Hispanic or Latino, ITT, 2 mg, Week 6
[13] = Hispanic or Latino, ITT, 2 mg, Week 8
[14] = Placebo (N = 8), mITT Population for Compliance for Black Patients

SMILES: CCC(=O)N[C@@H]1CCCc2c(-c3ccc4c(c3)CCC(=O)N4C)cncc21 [baxdrostat, (R)—N-(4-(1-methyl-2-oxo-1,2,3,4-tetrahydroquinolin-6-yl)-5,6,7,8-tetrahydroisoquinolin-8-yl) propionamide]
- LS Mean Change from Baseline (SE) in SBP (1 mg, Wk 6): −13.5 (1.88) mm Hg
- SBP Change from Baseline to Week 8, Mean (2 mg): −19.3 mmHg
- SBP Change from Baseline to Week 8, Median (2 mg): −18.0 mmHg
- SBP at Week 8, Median (2 mg): 125.0 mmHg
- efficacy in adherent Hispanic/Latino patients (2 mg): effective in adherent Hispanic/Latino, but efficacy response was substantially lower
- efficacy in the Black/African American subgroup (2 mg): effective
- Model-Based Least-Squares Mean Change from Baseline (SBP) (2 mg (N = 9), Week 2, mITT, Female Non-Hispanic Female Patients): −15.6
- Model-Based Least-Squares Mean Change from Baseline (SBP) (2 mg (N = 9), Week 4, mITT, Female Non-Hispanic Female Patients): −23.8
- Model-Based Least-Squares Mean Change from Baseline (SBP) (2 mg (N = 9), Week 6, mITT, Female Non-Hispanic Female Patients): −26.1
- Model-Based Least-Squares Mean Change from Baseline (SBP) (2 mg (N = 9), Week 8, mITT, Female Non-Hispanic Female Patients): −32.8
- Comp w/ Placebo at Week 6, Diff (95% CI) [1]: −15.8 (−29.06, −2.47)
- Comp w/ Placebo at Week 8, Diff (95% CI) [1]: −19.8 (−29.87, −9.73)
- Model-Based Least-Squares Mean Change from Baseline (SBP) (2 mg (N = 13), Week 2, mITT, Non-Hispanic Male Patients): −16.2
- Model-Based Least-Squares Mean Change from Baseline (SBP) (2 mg (N = 13), Week 4, mITT, Non-Hispanic Male Patients): −17.4
- Model-Based Least-Squares Mean Change from Baseline (SBP) (2 mg (N = 13), Week 6, mITT, Non-Hispanic Male Patients): −21.5
- Model-Based Least-Squares Mean Change from Baseline (SBP) (2 mg (N = 13), Week 8, mITT, Non-Hispanic Male Patients): −22.3
- Comp w/ Placebo at Week 6, Diff (95% CI) [2]: −11.6 (−22.42, −0.83)
- Comp w/ Placebo at Week 8, Diff (95% CI) [2]: −7.4 (−18.32, 3.53)
- LSMEANS change from baseline (SBP) (2 mg (N = 16), Week 2, mITT Population for Hispanic Compliant Patients): −4.6
- Model-Based Least-Squares Mean Change from Baseline (SBP) (2 mg (N = 16), Week 2, mITT, Hispanic Male Patients): −5.1
- LSMEANS change from baseline (SBP) (2 mg (N = 16), Week 4, mITT Population for Hispanic Compliant Patients): −13.9
- Model-Based Least-Squares Mean Change from Baseline (SBP) (2 mg (N = 16), Week 4, mITT, Hispanic Male Patients): −14.6
- LSMEANS change from baseline (SBP) (2 mg (N = 16), Week 6, mITT Population for Hispanic Compliant Patients): −15.4
- Model-Based Least-Squares Mean Change from Baseline (SBP) (2 mg (N = 16), Week 6, mITT, Hispanic Male Patients): −17.5
- LSMEANS change from baseline (SBP) (2 mg (N = 16), Week 8, mITT Population for Hispanic Compliant Patients): −22.8
- Model-Based Least-Squares Mean Change from Baseline (SBP) (2 mg (N = 16), Week 8, mITT, Hispanic Male Patients): −21.9
- Comp w Placebo at Week 6, Diff (95% CI) [3]: −6.0 (−13.91, 2.00)
- Comp w Placebo at Week 8, Diff (95% CI) [3]: −6.6 (−13.07, −0.13)
- Comp w/ Placebo at Week 6, Diff (95% CI) [4]: −6.2 (−14.14, 1.67)
- Comp w/ Placebo at Week 8, Diff (95% CI) [4]: −3.2 (−9.28, 2.87)
- Model-Based Least-Squares Mean Change from Baseline (SBP) (2 mg (N = 19), Week 2, mITT, Female Hispanic/Latino Patients): −6.0
- Model-Based Least-Squares Mean Change from Baseline (SBP) (2 mg (N = 19), Week 4, mITT, Female Hispanic/Latino Patients): −7.1
- Model-Based Least-Squares Mean Change from Baseline (SBP) (2 mg (N = 19), Week 6, mITT, Female Hispanic/Latino Patients): −8.0
- Model-Based Least-Squares Mean Change from Baseline (SBP) (2 mg (N = 19), Week 8, mITT, Female Hispanic/Latino Patients): −12.6
- Comp w/ Placebo at Week 6, Diff (95% CI) [5]: −1.5 (−13.53, 10.44)
- Comp w/ Placebo at Week 8, Diff (95% CI) [5]: 6.5 (−4.02, 16.98)
- SBP at Week 8, Mean (2 mg QD, mITT): 126.6 mmHg
- SBP LS mean change from baseline (SE), MMRM (2 mg, Week 8): −19.8 (1.67) mm Hg
- SBP LS mean difference (SE) vs placebo (2 mg, Week 8): −3.2 (2.23) mmHg
- LS Mean Change from Baseline (SE) in SBP (2 mg, Wk 2): −8.8 (1.65) mm Hg
- LS Mean Change from Baseline (SE) in SBP (2 mg, Wk 4): −13.6 (1.65) mm Hg
- LS Mean Change from Baseline (SE) in SBP (2 mg, Wk 6): −15.7 (1.93) mm Hg
- Model-based LS mean change from baseline (LSMEANS) (Female Hispanic/Latino, mITT, 0.5 mg, Week 2): −6.2
- Model-based LS mean change from baseline (LSMEANS) (Female Hispanic/Latino, mITT, 0.5 mg, Week 4): −13.4
- Comp w/ Placebo, Diff (95% CI) [6]: −4.9 (−16.80, 6.97) 0.412
- Model-based LS mean change from baseline (LSMEANS) [6]: −11.3
- Comp w/ Placebo, Diff (95% CI) [7]: 3.0 (−7.45, 13.46) 0.567
- Model-based LS mean change from baseline (LSMEANS) [7]: −16.1
- Model-based LS mean change from baseline (LSMEANS) (Hispanic or Latino, ITT, 0.5 mg, Week 2): −6.9
- Model-based LS mean change from baseline (LSMEANS) (Hispanic or Latino, ITT, 0.5 mg, Week 4): −13.0
- Comp w/ Placebo, Diff (95% CI) [8]: −4.1 (−10.84, 2.69) 0.235
- Model-based LS mean change from baseline (LSMEANS) [8]: −13.3
- Comp w/ Placebo, Diff (95% CI) [9]: −1.1 (−4.54, 6.66) 0.709
- Model-based LS mean change from baseline (LSMEANS) [9]: −17.1
- Model-based LS mean change from baseline (LSMEANS) (Hispanic or Latino, ITT, 1 mg, Week 2): −7.3
- Model-based LS mean change from baseline (LSMEANS) (Hispanic or Latino, ITT, 1 mg, Week 4): −8.1
- Comp w/ Placebo, Diff (95% CI) [10]: −1.4 (−8.71, 5.92)
- Model-based LS mean change from baseline (LSMEANS) [10]: −10.6
- Comp w/ Placebo, Diff (95% CI) [11]: 4.0 (−2.00, 10.06)
- Model-based LS mean change from baseline (LSMEANS) [11]: −14.1
- Model-based LS mean change from baseline (LSMEANS) (Hispanic or Latino, ITT, 2 mg, Week 2): −5.0
- Model-based LS mean change from baseline (LSMEANS) (Hispanic or Latino, ITT, 2 mg, Week 4): −10.1
- Comp w/ Placebo, Diff (95% CI) [12]: −2.5 (−9.31, 4.24)
- Model-based LS mean change from baseline (LSMEANS) [12]: −11.8
- Comp w/ Placebo, Diff (95% CI) [13]: 1.9 (−3.69, 7.44)
- Model-based LS mean change from baseline (LSMEANS) [13]: −16.3
- Model-Based Least-Square Mean Change from Baseline (SBP) (Placebo (N = 8), Week 2, mITT Population for Compliance for Black Patients): −7.7
- Model-Based Least-Square Mean Change from Baseline (SBP) (Placebo (N = 8), Week 4, mITT Population for Compliance for Black Patients): −18.3
- Model-Based Least-Square Mean Change from Baseline (SBP) (Placebo (N = 8), Week 6, mITT Population for Compliance for Black Patients): −20.6
- Model-Based Least-Square Mean Change from Baseline (SBP) (Placebo (N = 8), Week 8, mITT Population for Compliance for Black Patients): −27.6
- Comp w/ Placebo at Week 6, Diff (95% CI) [14]: −10.3 (−24.04, 3.43)
- Comp w/ Placebo at Week 8, Diff (95% CI) [14]: −13.4 (−25.04, −1.69)
